Data: US9758459B2, “Allosteric modulators of factor XIa as anticoagulant agents” (VIRGINIA COMMONWEALTH UNIVERSITY, priority 2012, dated 2017)
“And” between values parts separate entries of the source, which are not always exact repeats. Equal entries are not always repeated.

What was measured:
Assay type in all cases: biochemical
Lys539Ala FXIa-CD = target: T1, Lys539Ala FXIa-CD (Homo sapiens, UniProt P03951, C500S/K557A); assay: 16S inhibition of Lys539Ala FXIa-CD; conditions: not shown
T1 construct: eliminating the bond allows the catalytic domain of FXIa (FXIa-CD) to separate from the heavy chain; made in house; host or cells: HEK-293
Description: (§1) Mutagenesis and Expression of Recombinant Factor XIa. Mutations in the FXIa 170 helix were introduced into a modified human FXI cDNA (FXI-Ser-362,482), which contains serine substitutions for Cys362 and Cys482 (FXI numbering), as described earlier in several papers.^7,8 A disulfide bond between these residues connects the heavy chains and catalytic domains after cleavage at the activation site, and eliminating the bond allows the catalytic domain of FXIa (FXIa-CD) to separate from the heavy chain. The basic residues of the FXIa 170-helix, Lys529, Arg530, Arg532, Lys535 and Lys539 in the FXI numbering system (correspond to residues 170, 171, 173, 175 and 179 in the chymotrypsinogen numbering system), were changed to alanine individually and as a group using a Quick Change kit (Stratagene, La Jolla, Calif.). cDNAs in expression vector pJVCMV were used to transfect HEK-293 cells as described. Stably expressing clones were expanded in 175 cm^2 flasks, and serum free media (Cellgro Complete, Mediatech, Herndon, Va.) was collected every 48 hours, supplemented with benzamidine (5 mM) and stored at −80° C. pending purification. Recombinant FXI was purified from conditioned media on an anti-fXI IgG 1G5.12 affinity column. […] Protein containing fractions were pooled, concentrated and dialyzed, and protein concentrations were determined by dye-binding assay (Bio-Rad). […]

human plasma [1] = assay: Activated partial thromboplastin time (APTT) plasma clotting assay; conditions: human plasma, concentration doubling clotting time
Description: (§2) Plasma clotting assays, prothrombin and activated partial thromboplastin time (PT and APTT, respectively), are routinely used to assess the anticoagulation potential of new enzyme inhibitors in an in vitro setting. Whereas PT measures the effect of an inhibitor on the extrinsic pathway of coagulation, APTT measures the effect on the intrinsic pathway.
(§3) Prothrombin Time (PT) and Activated Partial Thromboplastin Time (APTT) were assessed as described in Example 1.

human plasma [2] = assay: Prothrombin time (PT) plasma clotting assay; conditions: concentration doubling clotting time
Description: as §2, §3

[3] = target: T2, recombinant wild type FXIa catalytic domain (FXIa-CD) (Homo sapiens, UniProt P03951, C500S); assay: 16S inhibition of recombinant FXIa catalytic domain, S2366 hydrolysis
T2 construct: eliminating the bond allows the catalytic domain of FXIa (FXIa-CD) to separate from the heavy chain; made in house; host or cells: HEK-293
Description: (§4) FIG. 15. […] Solid lines represent sigmoidal dose-response fits.
(§5) Mutagenesis and Expression of Recombinant Factor XIa. Mutations in the FXIa 170 helix were introduced into a modified human FXI cDNA (FXI-Ser-362,482), which contains serine substitutions for Cys362 and Cys482 (FXI numbering), as described earlier in several papers.^7,8 A disulfide bond between these residues connects the heavy chains and catalytic domains after cleavage at the activation site, and eliminating the bond allows the catalytic domain of FXIa (FXIa-CD) to separate from the heavy chain. The basic residues of the FXIa 170-helix, Lys529, Arg530, Arg532, Lys535 and Lys539 in the FXI numbering system (correspond to residues 170, 171, 173, 175 and 179 in the chymotrypsinogen numbering system), were changed to alanine individually and as a group using a Quick Change kit (Stratagene, La Jolla, Calif.). cDNAs in expression vector pJVCMV were used to transfect HEK-293 cells as described. Stably expressing clones were expanded in 175 cm^2 flasks, and serum free media (Cellgro Complete, Mediatech, Herndon, Va.) was collected every 48 hours, supplemented with benzamidine (5 mM) and stored at −80° C. pending purification. Recombinant FXI was purified from conditioned media on an anti-fXI IgG 1G5.12 affinity column. After loading, the column was washed with 25 mM Tris-HCl, pH 7.4, 100 mM NaCl, and eluted with 2M NaSCN in the same buffer. Protein containing fractions were pooled, concentrated and dialyzed, and protein concentrations were determined by dye-binding assay (Bio-Rad). Recombinant wild-type FXI or FXI-CD (˜200-300 μg/ml) was activated with 5 μg/ml FXIIa at 37° C. Completion of activation was confirmed by SDS-PAGE. Activated preparations were passed over a 1G5.12 column to separate the protease from FXIIa. In the case of proteins prepared in FXI-Ser-362,482, the catalytic domains bind to the column, while the heavy chain passes through.
(§6) Heparin binds to FXIa in two sites—in the A3 domain (Lys252, Lys253, and Lys255) and in the catalytic domain (Lys529, Arg530, Arg532, Lys535, and Lys539). […]

[4] = target: T3, Lys529Ala,Arg530Ala,Arg532Ala FXIa-CD triple mutant (Homo sapiens, UniProt P03951, C500S/K547A/R548A/R550A); assay: 16S inhibition of triple mutant FXIa-CD, S2366 hydrolysis
T3 construct: eliminating the bond allows the catalytic domain of FXIa (FXIa-CD) to separate from the heavy chain; made in house; host or cells: HEK-293
Description: as §4, §5, §6

human factor XIa [5] = target: T4, human factor XIa (Homo sapiens, UniProt P03951); assay: Direct inhibition of factor XIa, chromogenic substrate S-2366 hydrolysis assay; conditions: FXIa-WT, 16S plus 30 μM polybrene
T4 construct: purchased Haematologic Technologies (Essex Junction, Vt.); host or cells: human plasma

human factor XIa [6] = target: T4, human factor XIa; assay: as above
Description: Solvent A consisted of 25 mM n-hexylamine in water containing 0.1% (v/v) formic acid, while solvent B consisted of 25 mM n-hexylamine in acetonitrile-water mixture (3:1 v/v) containing 0.1% (v/v) formic acid. […] The sample was first monitored for absorbance in the range of 190-400 nm and then directly introduced into the mass spectrometer. ESI-MS detection was performed in positive ion mode for which the capillary voltage was 4 kV, cone voltage was 20 V, desolvation temperature was 350° C. and nitrogen gas flow was maintained at 650 L/hr. Mass scans were collected in the range of 1000-2048 amu within 0.25 s and several of these added to enhanced signal-to-noise ratio. Direct Inhibition of Factor XIa. […] After 10 min incubation, 5 μL factor XIa substrate (345 μM) was rapidly added and the residual FXIa activity was measured from the initial rate of increase in absorbance at 405 nm. […] Relative residual FXIa activity at each concentration of the inhibitor was calculated from the ratio of FXIa activity in the presence and absence of the inhibitor. Logistic equation 1 was used to fit the dose-dependence of residual protease activity to obtain the potency (IC50) and efficacy (ΔY) of inhibition.
Direct Inhibition of Factor XIa by Sulfated QAOs was performed as described in Example 1.
The ability of the sulfated inositol analogs to inhibit factor XIa was studied using the in vitro assay described in Example 1. In this assay, the factor XIa enzyme is anticipated to hydrolyze a particular peptide linkage in the corresponding peptide substrate releasing p-nitroaniline which absorbs at wavelength of 405 nm giving a line slope corresponds to the enzyme activity. The line slope of no inhibitor status is considered as a reference slope and it depends on the relative concentrations of factor XIa enzyme and its substrate. Factor XIa enzyme concentration was decided to get appropriate reference slope of approximately 25-35, whereas the substrate concentration was set to be larger than its affinity to factor XIa enzyme under equilibrium condition, Km. In presence of potential factor XIa inhibitor, the enzyme capacity to hydrolyze the designated peptide linkage in the substrate gets diminished or completely abolished depending on the inhibitor concentration and efficacy. […] Such decreased slope reflects a drop in the catalytic enzyme activity of factor XIa.

[7] = target: T5, Arg530Ala FXIa-CD single mutant (Homo sapiens, UniProt P03951, C500S/R548A); assay: 16S inhibition of Arg530Ala FXIa-CD, S2366 hydrolysis; conditions: Arg530 replaced by Ala
T5 construct: eliminating the bond allows the catalytic domain of FXIa (FXIa-CD) to separate from the heavy chain; made in house; host or cells: HEK-293
Description: as §4
as §1, with “purification.” for “purification. Recombinant FXI was purified from conditioned media on an anti-fXI IgG 1G5.12 affinity column.”

Lys535Ala FXIa-CD = target: T6, Lys535Ala FXIa-CD (Homo sapiens, UniProt P03951, C500S/K553A); assay: 16S inhibition of Lys535Ala FXIa-CD; conditions: not shown
T6 construct: eliminating the bond allows the catalytic domain of FXIa (FXIa-CD) to separate from the heavy chain; made in house; host or cells: HEK-293
Description: as §1

T2 sequence (P03951 388-625 C500S): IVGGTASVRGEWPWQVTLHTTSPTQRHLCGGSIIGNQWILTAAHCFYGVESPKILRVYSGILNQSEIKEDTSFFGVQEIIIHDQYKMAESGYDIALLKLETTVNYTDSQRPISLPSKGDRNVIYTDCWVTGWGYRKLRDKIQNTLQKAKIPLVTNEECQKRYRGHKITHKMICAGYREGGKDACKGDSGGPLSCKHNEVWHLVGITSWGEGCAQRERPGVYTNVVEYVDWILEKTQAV
T4 sequence (P03951 19-387 limits assumed): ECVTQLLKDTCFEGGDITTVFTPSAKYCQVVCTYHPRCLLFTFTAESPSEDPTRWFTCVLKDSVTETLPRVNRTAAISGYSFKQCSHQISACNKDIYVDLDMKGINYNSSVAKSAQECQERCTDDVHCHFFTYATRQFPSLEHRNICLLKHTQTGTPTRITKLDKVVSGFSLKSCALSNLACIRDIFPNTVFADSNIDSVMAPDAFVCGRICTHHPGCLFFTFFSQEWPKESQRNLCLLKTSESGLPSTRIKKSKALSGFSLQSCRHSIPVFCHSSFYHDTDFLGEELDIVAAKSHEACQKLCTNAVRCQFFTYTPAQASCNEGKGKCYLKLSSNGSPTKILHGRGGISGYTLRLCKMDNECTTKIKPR
T4 sequence (P03951 388-625 limits assumed): as the sequence (P03951 388-625 C500S) above, with S113C counted along it
T3 sequence (P03951 388-625 C500S/K547A/R548A/R550A): as the sequence (P03951 388-625 C500S) above, with K160A, R161A, R163A counted along it
T6 sequence (P03951 388-625 C500S/K553A): as the sequence (P03951 388-625 C500S) above, with K166A counted along it
T1 sequence (P03951 388-625 C500S/K557A): as the sequence (P03951 388-625 C500S) above, with K170A counted along it
T5 sequence (P03951 388-625 C500S/R548A): as the sequence (P03951 388-625 C500S) above, with R161A counted along it

In the case of `O=c1c2ccccc2nc(-c2ccc(OS(=O)(=O)O)cc2)n1CCCCCCn1cc(Cn2c(-c3ccc(OS(=O)(=O)O)cc3)nc3ccccc3c2=O)nn1` [Inhibitor 16S], the “change in IC50 from wild-type FXIa-CD” value (Lys539Ala FXIa-CD) is reported as “no change in IC50”, the “2 × APTT” value (human plasma [1]) is reported as 950 µM and the “2 × PT” value (human plasma [2]) is reported as greater than 2000 µM. The “inhibition level after addition of polybrene” value (“inhibition level” below) ([3]; FXIa-CD, 16S plus 30 μM polybrene) was 13.1±0.7%, the “proteolytic activity in the presence of 16S” value (“proteolytic activity” below) ([3]; FXIa-CD, no polybrene) was roughly 6% and the “inhibition of FXIa-CD compared with wild-type enzyme” value ([3]; not shown) was “as potently as the wild-type enzyme”. The “proteolytic activity” value ([4]; FXIa-CD triple mutations, no polybrene) was roughly 5%, the “inhibition level” value ([4]; FXIa-CD with triple mutations, 16S plus 30 μM polybrene) was 7.1±1.2% and the “reduction of potency versus FXIa-CD” value ([4]; Lys529, Arg530 and Arg532 replaced by Ala) was “approximately 5 fold”. For the same compound, the “inhibition level” value (human factor XIa [5]) was 9.2±1.0%, the “proteolytic activity” value (human factor XIa [6]; full length wild-type FXIa, no polybrene) was “approximately 4%” and the “ΔY % (efficacy)” value (human factor XIa [6]; sulfated QAOs) was 97 ± 1%. For the same compound, the IC50 (human factor XIa [6]; sulfated QAOs, pH 7.4, 37° C., read-out: IC50 (converted)) was ~50 µM and 52 µM, the “increase in IC50 versus FXIa-CD” value [7] was 2 fold and the “change in IC50 from wild-type FXIa-CD” value (Lys535Ala FXIa-CD) was “no change in IC50”.
